For this test, the target named is HPK1 (Homo sapiens (Human), UniProt Q92918). Put plainly: HPK1 Lantha binding assay ("Lanth"). The note with it: binding assays; Morrison Ki fit. In short, it runs like this: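 Ki values are from Morrison-equation fitting of 665/615 nm TR-FRET signals, taking enzyme level, tracer level and tracer Kd into account. The assay mix held HPK1 (2 nM), Eu-anti-GST antibody (2 nM) and Tracer222 (15 nM). Incubations were two 1 h steps at 23 °C, on 5-fold serial compound dilutions.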
Sequence of HPK1 (Q92918 1-346 limits assumed): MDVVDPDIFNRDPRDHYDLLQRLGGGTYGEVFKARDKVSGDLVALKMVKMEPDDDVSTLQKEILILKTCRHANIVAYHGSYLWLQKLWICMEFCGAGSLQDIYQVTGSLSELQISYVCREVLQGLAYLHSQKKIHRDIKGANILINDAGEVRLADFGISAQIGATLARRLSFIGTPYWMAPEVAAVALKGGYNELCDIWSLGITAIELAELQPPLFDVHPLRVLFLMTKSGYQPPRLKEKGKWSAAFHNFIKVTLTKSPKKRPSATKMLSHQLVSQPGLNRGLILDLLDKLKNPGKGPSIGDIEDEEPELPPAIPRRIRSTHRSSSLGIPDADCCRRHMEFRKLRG
Regarding `Cn1cc(C2CCCCN2C(=O)c2cccc(-c3cnc4c(c3)[C@]3(CC[C@H](O)CC3)CN4)c2F)cn1` (stereo partly drawn) [Compound 245a, (2-Fluoro-3-((1s,4s)-4-hydroxy-1′,2′-dihydrospiro[cyclohexane-1,3′-pyrrolo[2,3-b]pyridin]-5′-yl)phenyl)((R)-2-(1-methyl-1H-pyrazol-4-yl)piperidin-1-yl)methanone], the Ki is 42 nM. This counts as double-digit nanomolar.
As for `CC(C)(C)c1nnc(-c2cccc(-c3cnc4c(c3Cl)C3(CC=CC3)CN4)c2)o1` [Compound 247, 2-(tert-Butyl)-5-(3-(4′-chloro-1′,2′-dihydrospiro[cyclopentane-1,3′-pyrrolo[2,3-b]pyridin]-3-en-5′-yl)phenyl)-1,3,4-oxadiazole], the Ki worked out at 253 nM.
In turn, `CN(C)C(=O)c1c(N)ccc(-c2cnc3c(c2Cl)[C@]2(CC[C@H](CO)CC2)CN3)c1F` [Compound 248a, 6-Amino-3-((1s,4s)-4′-chloro-4-(hydroxymethyl)-1′,2′-dihydrospiro[cyclohexane-1,3′-pyrrolo[2,3-b]pyridin]-5′-yl)-2-fluoro-N,N-dimethylbenzamide] showed a Ki of 6.01 nM.
The compound `CN(C)C(=O)c1c(N)ccc(-c2cnc3c(c2Cl)[C@]2(CC[C@@H](CO)CC2)CN3)c1F` [Compound 248b, 6-Amino-3-((1r,4r)-4′-chloro-4-(hydroxymethyl)-1′,2′-dihydrospiro[cyclohexane-1,3′-pyrrolo[2,3-b]pyridin]-5′-yl)-2-fluoro-N,N-dimethylbenzamide] yielded a Ki of 4.89 nM.
Under `Cc1c(CC#N)ccnc1-c1cccc(-c2cnc3c(c2Cl)C2(CC=CC2)CN3)c1` [Compound 249, 2-(2-(3-(4′-Chloro-1′,2′-dihydrospiro[cyclopentane-1,3′-pyrrolo[2,3-b]pyridin]-3-en-5′-yl)phenyl)-3-methylpyridin-4-yl)acetonitrile] stands 4.3 nM.
Under `CN(C)C(=O)c1c(N)ccc(-c2cnc3c(c2Cl)[C@]2(CC[C@@](C)(C#N)CC2)CN3)c1F` [Compound 250b, 6-Amino-3-((1r,4r)-4′-chloro-4-cyano-4-methyl-1′,2′-dihydrospiro[cyclohexane-1,3′-pyrrolo[2,3-b]pyridin]-5′-yl)-2-fluoro-N,N-dimethylbenzamide] stands 41.3 nM.
To `Cc1c(CC#N)ccnc1-c1cccc(-c2cnc3c(c2)C2(CC2)CN3)c1F` [Compound 251, 2-(2-(3-(1′,2′-Dihydrospiro[cyclopropane-1,3′-pyrrolo[2,3-b]pyridin]-5′-yl)-2-fluorophenyl)-3-methylpyridin-4-yl)acetonitrile] belongs 3.15 nM; to `Cc1c(CC#N)ccnc1-c1cccc(-c2cnc3c(c2Cl)C2(CC=CC2)CN3)c1F` [Compound 252, 2-(2-(3-(4′-Chloro-1′,2′-dihydrospiro[cyclopentane-1,3′-pyrrolo[2,3-b]pyridin]-3-en-5′-yl)-2-fluorophenyl)-3-methylpyridin-4-yl)acetonitrile], 5.94 nM.
As to `CN(C)C(=O)c1c(N)ccc(-c2cnc3c(c2Cl)[C@]2(CC[C@H](C(C)(C)O)CC2)CN3)c1F` [Compound 255a, 6-Amino-3-((1s,4s)-4′-chloro-4-(2-hydroxypropan-2-yl)-1′,2′-dihydrospiro[cyclohexane-1,3′-pyrrolo[2,3-b]pyridin]-5′-yl)-2-fluoro-N,N-dimethylbenzamide], the inhibition constant (Ki) is 19.9 nM.
Regarding `CN(C)C(=O)c1c(N)ccc(-c2cnc3c(c2Cl)[C@]2(CC[C@@H](C(C)(C)O)CC2)CN3)c1F` [Compound 255b, 6-Amino-3-((1r,4r)-4′-chloro-4-(2-hydroxypropan-2-yl)-1′,2′-dihydrospiro[cyclohexane-1,3′-pyrrolo[2,3-b]pyridin]-5′-yl)-2-fluoro-N,N-dimethylbenzamide], the inhibitory constant (Ki) turned out to be 12 nM.
To `CN(C)C(=O)c1c(N)ccc(-c2cnc3c(c2Cl)[C@]2(CC[C@@](C)(CO)CC2)CN3)c1F` [Compound 256a, 6-Amino-3-((1r,4r)-4′-chloro-4-(hydroxymethyl)-4-methyl-1′,2′-dihydrospiro[cyclohexane-1,3′-pyrrolo[2,3-b]pyridin]-5′-yl)-2-fluoro-N,N-dimethylbenzamide] belongs 11.1 nM; to `Cc1cc(CC#N)nn1-c1cccc(-c2cnc3c(c2Cl)C2(CC=CC2)CN3)c1` [Compound 257, 2-(1-(3-(4′-Chloro-1′,2′-dihydrospiro[cyclopentane-1,3′-pyrrolo[2,3-b]pyridin]-3-en-5′-yl)phenyl)-5-methyl-1H-pyrazol-3-yl)acetonitrile], 53.2 nM; to `CN(C)C(=O)c1c(N)ccc(-c2cnc3c(c2Cl)[C@]2(CC[C@@H](CN)CC2)CN3)c1F` [Compound 258a, 6-Amino-3-((1r,4r)-4-(aminomethyl)-4′-chloro-1′,2′-dihydrospiro[cyclohexane-1,3′-pyrrolo[2,3-b]pyridin]-5′-yl)-2-fluoro-N,N-dimethylbenzamide], 190 nM.
`CN(C)C(=O)c1c(N)ccc(-c2cnc3c(c2Cl)[C@]2(CC[C@H](CN)CC2)CN3)c1F` [Compound 258b, 6-Amino-3-((1s,4s)-4-(aminomethyl)-4′-chloro-1′,2′-dihydrospiro[cyclohexane-1,3′-pyrrolo[2,3-b]pyridin]-5′-yl)-2-fluoro-N,N-dimethylbenzamide] registered a Ki of 150 nM.
Under `CN(Cc1cnn(C2CCNC2)c1)C(=O)c1cccc(-c2cnc3c(c2Cl)C2(CC=CC2)CN3)c1F` (centres unmarked) [Compound 260, 3-(4′-Chloro-1′,2′-dihydrospiro[cyclopentane-1,3′-pyrrolo[2,3-b]pyridin]-3-en-5′-yl)-2-fluoro-N-methyl-N-((1-(pyrrolidin-3-yl)-1H-pyrazol-4-yl)methyl)benzamide] stands 38 nM; under `CN(Cc1cnn(CCO)c1)C(=O)c1cccc(-c2cnc3c(c2Cl)C2(CC=CC2)CN3)c1F` [Compound 262, 3-(4′-Chloro-1′,2′-dihydrospiro[cyclopentane-1,3′-pyrrolo[2,3-b]pyridin]-3-en-5′-yl)-2-fluoro-N-((1-(2-hydroxyethyl)-1H-pyrazol-4-yl)methyl)-N-methylbenzamide], 12 nM.
Under `CN(C)C(=O)C1(c2cccc(-c3cnc4c(c3Cl)C3(CC=CC3)CN4)c2)CC1` [Compound 263, 1-(3-(4′-Chloro-1′,2′-dihydrospiro[cyclopentane-1,3′-pyrrolo[2,3-b]pyridin]-3-en-5′-yl)phenyl)-N,N-dimethylcyclopropane-1-carboxamide] stands 283 nM.
`NC(=O)C1(c2cccc(-c3cnc4c(c3Cl)C3(CC=CC3)CN4)c2F)CC1` [Compound 265, 1-(3-(4′-Chloro-1′,2′-dihydrospiro[cyclopentane-1,3′-pyrrolo[2,3-b]pyridin]-3-en-5′-yl)-2-fluorophenyl)cyclopropane-1-carboxamide]: affinity was put at a Ki of 108 nM.
Under `O=C(N1CCOCC1)C1(c2cccc(-c3cnc4c(c3Cl)C3(CC=CC3)CN4)c2)CC1` [Compound 268, (1-(3-(4′-Chloro-1′,2′-dihydrospiro[cyclopentane-1,3′-pyrrolo[2,3-b]pyridin]-3-en-5′-yl)phenyl)cyclopropyl)(morpholino)methanone] stands 484 nM; under `N#CCNC(=O)c1ccnc(-c2cccc(-c3cnc4c(c3Cl)C3(CC=CC3)CN4)c2F)c1` [Compound 269, 2-(3-(4′-Chloro-1′,2′-dihydrospiro[cyclopentane-1,3′-pyrrolo[2,3-b]pyridin]-3-en-5′-yl)-2-fluorophenyl)-N-(cyanomethyl)isonicotinamide], 191 nM.

One may read the Ki as the dissociation constant of the complex between target and ligand, obtained from inhibition or displacement. Read a high Ki as weaker binding.

Source of the values: patent publication US12208088B2 (Genentech, Inc., priority 2018, dated 2025).
